Reference: ChEMBL document CHEMBL1139224, “Discovery and metabolic stabilization of potent and selective 2-amino-N-(adamant-2-yl) acetamide 11beta-hydroxysteroid dehydrogenase type 1 inhibitors” (J Med Chem, 2007)
pIC50, pKi: −log10 of the molar value.

Tests used:
[1] = Intrinsic clearance in human liver microsomes at 1 uM; type: ADME, Microsome
[2] = target: 11-beta-hydroxysteroid dehydrogenase 1 (Mus musculus, UniProt P50172); experiment: Inhibition of mouse 11beta-HSD1 expressed in Escherichia coli by SPA
[3] = Intrinsic clearance in mouse liver microsomes at 1 uM; type: ADME, Microsome
[4] = target: T1, 11-beta-hydroxysteroid dehydrogenase 1 (Homo sapiens, UniProt P28845); experiment: Inhibition of human 11beta-HSD1 expressed in Escherichia coli by SPA
[5] = target: T1, 11-beta-hydroxysteroid dehydrogenase 1; experiment: Inhibition of human 11beta-HSD1 expressed in HEK293 cells by FPIA; type: cell-based
[6] = target: 11-beta-hydroxysteroid dehydrogenase 1 (Rattus norvegicus, UniProt P16232); experiment: Inhibitory activity against rat 11beta-HSD1
[7] = target: T2, 11-beta-hydroxysteroid dehydrogenase type 2 (Homo sapiens, UniProt P80365); experiment: Inhibitory activity against human 11beta-HSD2 by SPA
T2 sequence (P80365 whole entry): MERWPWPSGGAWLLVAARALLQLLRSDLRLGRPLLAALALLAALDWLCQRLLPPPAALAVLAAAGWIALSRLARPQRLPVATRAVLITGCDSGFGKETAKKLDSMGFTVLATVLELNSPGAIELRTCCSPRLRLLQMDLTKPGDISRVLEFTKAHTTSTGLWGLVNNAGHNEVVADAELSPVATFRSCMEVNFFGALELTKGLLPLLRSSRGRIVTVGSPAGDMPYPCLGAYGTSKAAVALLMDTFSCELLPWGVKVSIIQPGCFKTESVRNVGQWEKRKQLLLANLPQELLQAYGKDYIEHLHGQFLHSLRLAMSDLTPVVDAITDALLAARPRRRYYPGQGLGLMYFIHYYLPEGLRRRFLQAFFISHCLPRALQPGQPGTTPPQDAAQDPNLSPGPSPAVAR

[8] = target: T3, 11-beta-hydroxysteroid dehydrogenase type 2 (Mus musculus, UniProt P51661); experiment: Inhibitory activity against mouse 11beta-HSD2 by SPA
T3 sequence (P51661 whole entry): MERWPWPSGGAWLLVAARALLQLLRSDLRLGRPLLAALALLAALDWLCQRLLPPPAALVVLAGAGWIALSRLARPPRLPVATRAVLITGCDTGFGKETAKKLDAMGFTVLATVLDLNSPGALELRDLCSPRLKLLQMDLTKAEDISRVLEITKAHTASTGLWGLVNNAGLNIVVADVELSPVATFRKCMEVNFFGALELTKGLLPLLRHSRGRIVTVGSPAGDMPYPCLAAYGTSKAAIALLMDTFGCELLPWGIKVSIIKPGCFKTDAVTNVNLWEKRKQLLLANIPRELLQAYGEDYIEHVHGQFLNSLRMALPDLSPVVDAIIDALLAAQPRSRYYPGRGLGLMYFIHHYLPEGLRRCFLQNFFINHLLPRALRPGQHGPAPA

[9] = target: T4, 11-beta-hydroxysteroid dehydrogenase type 2 (Rattus norvegicus, UniProt P50233); experiment: Inhibitory activity against rat 11beta-HSD2
T4 sequence (P50233 whole entry): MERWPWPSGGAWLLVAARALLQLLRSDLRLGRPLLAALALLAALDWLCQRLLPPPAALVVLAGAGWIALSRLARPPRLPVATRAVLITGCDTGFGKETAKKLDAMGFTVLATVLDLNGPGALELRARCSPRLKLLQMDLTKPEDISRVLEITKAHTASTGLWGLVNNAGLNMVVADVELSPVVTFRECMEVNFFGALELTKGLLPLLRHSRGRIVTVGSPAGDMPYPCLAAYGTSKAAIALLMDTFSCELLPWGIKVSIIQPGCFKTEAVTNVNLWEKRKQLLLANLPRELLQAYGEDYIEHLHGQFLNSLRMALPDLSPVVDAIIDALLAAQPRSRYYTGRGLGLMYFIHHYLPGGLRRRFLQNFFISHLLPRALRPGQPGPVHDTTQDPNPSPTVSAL

[10] = Intrinsic clearance in rat liver microsomes at 1 uM; type: ADME, Microsome
[11] = Plasma clearance in rat at 5 mg/kg, iv; type: ADME, organism-based; parameters: dose 5 mg/kg, route intravenous
[12] = Half life in rat at 5 mg/kg, po; type: ADME, organism-based; parameters: dose 5 mg/kg, route oral; settings: in vivo
[13] = Volume of distribution in rat at 5 mg/kg, iv; type: ADME, organism-based; parameters: dose 5 mg/kg, route intravenous; settings: in vivo, read-out: Vss
[14] = Half life in mouse at 10 mg/kg, po; type: ADME, organism-based; parameters: dose 10 mg/kg, route oral; settings: in vivo
[15] = Plasma clearance in mouse at 10 mg/kg, iv; type: ADME, organism-based; parameters: dose 10 mg/kg, route intravenous
[16] = target: 11-beta-hydroxysteroid dehydrogenase 1 (Mus musculus) (UniProt P50172); experiment: Inhibition of mouse 11beta-HSD1 in DIO mouse adipose tissue at 30 mg/kg, po after 1 hr; type: organism-based; parameters: dose 30 mg/kg
[17] = Oral bioavailability in mouse at 10 mg/kg, po; type: ADME, organism-based; settings: in vivo
[18] = target: 11-beta-hydroxysteroid dehydrogenase 1 (Mus musculus) (UniProt P50172); experiment: Inhibition of mouse 11beta-HSD1 in DIO mouse adipose tissue at 30 mg/kg, po after 7 hrs; type: organism-based; parameters: dose 30 mg/kg
[19] = Half life in mouse at 10 mg/kg, iv; type: ADME, organism-based; parameters: dose 10 mg/kg, route intravenous; settings: in vivo
[20] = target: 11-beta-hydroxysteroid dehydrogenase 1 (Mus musculus) (UniProt P50172); experiment: Inhibition of mouse 11beta-HSD1 in DIO mouse brain at 30 mg/kg, po after 7 hrs; type: organism-based; parameters: dose 30 mg/kg
[21] = target: 11-beta-hydroxysteroid dehydrogenase 1 (Mus musculus) (UniProt P50172); experiment: Inhibition of mouse 11beta-HSD1 in DIO mouse liver at 30 mg/kg, po after 1 hr; type: organism-based; parameters: dose 30 mg/kg
[22] = Volume of distribution in mouse at 10 mg/kg, iv; type: ADME, organism-based; parameters: dose 10 mg/kg, route intravenous; settings: in vivo, read-out: Vdss
[23] = Oral bioavailability in rat at 5 mg/kg, po; type: ADME, organism-based; settings: in vivo
[24] = target: 11-beta-hydroxysteroid dehydrogenase 1 (Mus musculus) (UniProt P50172); experiment: Inhibition of mouse 11beta-HSD1 in DIO mouse liver at 30 mg/kg, po after 7 hrs; type: organism-based; parameters: dose 30 mg/kg
[25] = Half life in rat at 5 mg/kg, iv; type: ADME, organism-based; parameters: dose 5 mg/kg, route intravenous; settings: in vivo
[26] = target: 11-beta-hydroxysteroid dehydrogenase 1 (Mus musculus) (UniProt P50172); experiment: Inhibition of mouse 11beta-HSD1 in DIO mouse brain at 30 mg/kg, po after 1 hr; type: organism-based; parameters: dose 30 mg/kg
Rattus norvegicus = experiment: Area under the curve in rat at 5 mg/kg, po; type: ADME, organism-based; parameters: dose 5 mg/kg, route oral; settings: in vivo
Mus musculus = experiment: AUC in mouse at 10 mg/kg, po; type: ADME, organism-based, Plasma; parameters: dose 10 mg/kg, route oral; settings: in vivo

T1 sequence (P28845 whole entry): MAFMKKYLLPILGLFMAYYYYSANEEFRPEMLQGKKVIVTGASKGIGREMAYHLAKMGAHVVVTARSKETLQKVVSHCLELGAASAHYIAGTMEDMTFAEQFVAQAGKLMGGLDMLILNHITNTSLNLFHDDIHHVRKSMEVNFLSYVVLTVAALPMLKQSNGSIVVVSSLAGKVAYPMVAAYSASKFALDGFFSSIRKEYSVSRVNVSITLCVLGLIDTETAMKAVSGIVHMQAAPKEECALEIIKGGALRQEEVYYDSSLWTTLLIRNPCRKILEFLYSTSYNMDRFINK
Sequence of 11-beta-hydroxysteroid dehydrogenase 1 (Mus musculus, UniProt P50172) (P50172 whole entry): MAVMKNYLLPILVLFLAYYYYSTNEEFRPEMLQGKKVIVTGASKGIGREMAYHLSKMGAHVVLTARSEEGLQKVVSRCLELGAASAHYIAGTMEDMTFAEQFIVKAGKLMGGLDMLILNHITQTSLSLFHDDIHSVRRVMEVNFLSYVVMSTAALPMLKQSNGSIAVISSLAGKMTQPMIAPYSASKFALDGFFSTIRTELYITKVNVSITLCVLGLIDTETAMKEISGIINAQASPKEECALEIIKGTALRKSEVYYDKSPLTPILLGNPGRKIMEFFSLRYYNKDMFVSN
Sequence of 11-beta-hydroxysteroid dehydrogenase 1 (Mus musculus) (P50172 whole entry, looked up): as the sequence (P50172 whole entry) above
Sequence of 11-beta-hydroxysteroid dehydrogenase 1 (Rattus norvegicus, UniProt P16232) (P16232 whole entry): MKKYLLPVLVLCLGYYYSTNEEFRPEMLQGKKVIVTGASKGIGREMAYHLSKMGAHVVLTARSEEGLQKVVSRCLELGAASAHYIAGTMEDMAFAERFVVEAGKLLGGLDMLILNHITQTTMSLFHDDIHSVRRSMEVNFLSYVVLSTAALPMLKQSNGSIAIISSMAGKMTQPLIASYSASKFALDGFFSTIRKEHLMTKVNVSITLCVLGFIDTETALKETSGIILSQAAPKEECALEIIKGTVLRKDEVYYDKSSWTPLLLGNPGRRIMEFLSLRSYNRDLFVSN

For CO[C@]12CC3CC(C1)[C@@H](NC(=O)C(C)N1CCN(c4ccc(C(F)(F)F)cn4)CC1)C(C3)C2 (mixture of isomers), the CLint scaled at 1 µM [1] was 50 mL/min/kg, the pKi [2] was 7.74 and the CLint scaled at 1 µM [3] was 183 mL/min/kg.
For CC(C)(C(=O)N[C@H]1C2C[C@@]3(O)CC1C[C@@](O)(C2)C3)N1CCN(c2ccc(C(F)(F)F)cn2)CC1, the CLint scaled at 1 µM [1] was less than 16.7 mL/min/kg, the pKi [2] was 6.33 and the CLint scaled at 1 µM [3] was 383 mL/min/kg.
For C[C@@H](C(=O)N[C@H]1C2CC3CC1C[C@](O)(C3)C2)N1CCN(c2ccc(C(F)(F)F)cn2)CC1 (stereo in doubt; (S)-22f), the pKi [4] was 8.15, the pIC50 [5] was 7.44 and the pKi [2] was 6.59.
With CC(C(=O)N[C@H]1C2C[C@@]3(O)CC1C[C@@](F)(C2)C3)N1CCN(c2ccc(C(F)(F)F)cn2)CC1 (mixture of isomers) the CLint scaled at 1 µM [1] was less than 16.7 mL/min/kg, the pKi [2] was 7.48 and the CLint scaled at 1 µM [3] was 233 mL/min/kg.
With O=C(CN1CC[C@H](C(F)(F)F)C1)N[C@H]1C2CC3CC1C[C@](O)(C3)C2 the pKi [6] was 8.52, the pKi [4] was 8.52 and the CLint scaled at 1 µM [1] was less than 16.7 mL/min/kg. The pIC50 [5] was 7.46, the pKi [2] was 8.70 and the pIC50 [7] was less than 4.00. For the same compound, the CLint scaled at 1 µM [3] was 1000 mL/min/kg, the pIC50 [8] was less than 4.00 and the pIC50 [9] was less than 4.00. It also gave a CLint scaled at 1 µM [10] of 467 mL/min/kg.
In the case of CC(C)(C(=O)N[C@H]1C2CC3CC1C[C@](O)(C3)C2)N1CCN(c2ccc(C(F)(F)F)cn2)CC1, the CLint scaled at 1 µM [1] was 100 mL/min/kg, the pIC50 [7] was less than 4.00 and the CLint scaled at 1 µM [3] was 2170 mL/min/kg. It also gave a pIC50 [8] of less than 4.00.
C[C@@H](C(=O)N[C@H]1C2CC3CC1C[C@](O)(C3)C2)N1CC[C@@H](F)C1 gave a pKi [4] of 7.68, a CLint scaled at 1 µM [1] of less than 16.7 mL/min/kg and a pIC50 [5] of 6.35. It also gave a pKi [2] of 7.62, a pIC50 [7] of less than 4.00 and a CLint scaled at 1 µM [3] of less than 100 mL/min/kg. It also gave a pIC50 [8] of less than 4.00.
O=C(CN1CCN(c2ccc(C(F)(F)F)cn2)CC1)N[C@H]1C2CC3CC1C[C@@](O)(C3)C2 gave a pKi [4] of 7.17, a CLint scaled at 1 µM [1] of 183 mL/min/kg and a pIC50 [5] of less than 4.82. It also gave a pKi [2] of 6.52, a pIC50 [7] of less than 5.00 and a CLint scaled at 1 µM [3] of 1080 mL/min/kg. It also gave a pIC50 [8] of less than 4.00.
In the case of CO[C@]12CC3C[C@](O)(CC(C1)C3NC(=O)C(C)(C)N1CCN(c3ccc(C(F)(F)F)cn3)CC1)C2 (stereo not given in full), the CLint scaled at 1 µM [1] was less than 16.7 mL/min/kg, the pKi [2] was 6.74 and the CLint scaled at 1 µM [3] was 1000 mL/min/kg.
CC(C(=O)N[C@H]1C2CC3CC1C[C@](O)(C3)C2)N1CCN(c2ccc(C(F)(F)F)cn2)CC1 (mixture of isomers) showed a pKi [6] of 8.40, a pKi [4] of 8.30 and a clearance [11] of 33.3 mL/min/kg. The half-life [12] was 1.6 h, the Vd [13] was 1 L/kg and the half-life [14] was 1 h. For the same compound, the clearance [15] was 55 mL/min/kg, the inhibition [16] was 51% and the bioavailability [17] was 65%. The inhibition [18] was 16%, the half-life [19] was 0.4 h and the CLint scaled at 1 µM [1] was 50 mL/min/kg. For the same compound, the pIC50 [5] was 7.54, the inhibition [20] was 25% and the inhibition [21] was 36%. It also gave a pKi [2] of 7.82, a Vd [22] of 1.6 L/kg and a bioavailability [23] of 37%. It also gave a pIC50 [7] of less than 4.00, an inhibition [24] of 9% and a CLint scaled at 1 µM [3] of 117 mL/min/kg. For the same compound, the pIC50 [8] was less than 4.00, the half-life [25] was 1 h and the inhibition [26] was 37%. For the same compound, the pIC50 [9] was less than 4.00, the AUC (Rattus norvegicus) was 1 ug/hr.ml and the AUC (Mus musculus) was 1.9 ug/hr.ml. For the same compound, the CLint scaled at 1 µM [10] was 83.3 mL/min/kg.
With O=C(CN1CCN(c2ccc(C(F)(F)F)cn2)CC1)N[C@H]1C2CC3CC1C[C@](O)(C3)C2 the pKi [6] was 8.22, the pKi [4] was 8.10 and the clearance [11] was 23.3 mL/min/kg. It also gave a half-life [12] of 1.3 h, a Vd [13] of 2.2 L/kg and a CLint scaled at 1 µM [1] of 16.7 mL/min/kg. For the same compound, the pIC50 [5] was 6.89, the pKi [2] was 7.47 and the bioavailability [23] was 65%. It also gave a pIC50 [7] of less than 4.00, a CLint scaled at 1 µM [3] of 683 mL/min/kg and a pIC50 [8] of less than 4.00. It also gave a half-life [25] of 1.4 h, a pIC50 [9] of less than 4.00 and an AUC (Rattus norvegicus) of 2.4 ug/hr.ml. For the same compound, the CLint scaled at 1 µM [10] was less than 50 mL/min/kg.
Compound O=C(CN1CCN(c2ccc(Cl)cc2)CC1)NC1C2CC3CC(C2)CC1C3 (stereo not given) has a CLint scaled at 1 µM [1] of 583 mL/min/kg, a pKi [2] of 7.68 and a CLint scaled at 1 µM [3] of 1050 mL/min/kg.
